Reference: patent US9650340B2, “5-fluoro-N-(pyridin-2-yl)pyridin-2-amine derivatives containing a sulfoximine group” (BAYER PHARMA AKTIENGESELLSCHAFT, priority 2012, dated 2017)

Experiments:
CDK2/CycE = target: T1, CDK2/CycE (Homo sapiens, UniProt P24941); test: CDK2/CycE kinase assay (TR-FRET, 10 μM ATP); format: biochemical; conditions: Method 2 (2a)
T1 construct: GST; purchased ProQinase GmbH (Freiburg, Germany); host or cells: insect cells (Sf9)
Text: 2a. CDK2/CycE Kinase Assay:
CDK2/CycE-inhibitory activity of compounds of the present invention was quantified employing the CDK2/CycE TR-FRET assay as described in the following paragraphs:
Recombinant fusion proteins of GST and human CDK2 and of GST and human CycE, expressed in insect cells (Sf9) and purified by Glutathion-Sepharose affinity chromatography, were purchased from ProQinase GmbH (Freiburg, Germany). As substrate for the kinase reaction biotinylated peptide biotin-Ttds-[…] (C-terminus in amid form) was used which can be purchased e.g. form the company JERINI Peptide Technologies (Berlin, Germany).
For the assay 50 nl of a 100 fold concentrated solution of the test compound in DMSO was pipetted into a black low volume 384 well microtiter plate (Greiner Bio-One, Frickenhausen, Germany), 2 μl of a solution of CDK2/CycE in aqueous assay buffer [50 mM Tris/HCl pH 8.0, 10 mM MgCl2, 1.0 mM dithiothreitol, 0.1 mM sodium ortho-vanadate, 0.01% (v/v) Nonidet-P40 (Sigma)] were added and the mixture was incubated for 15 min at 22° C. to allow pre-binding of the test compounds to the enzyme before the start of the kinase reaction. Then the kinase reaction was started by the addition of 3 μl of a solution of adenosine-tri-phosphate (ATP, 16.7 μM=>final conc. in the 5 μl assay volume is 10 μM) and substrate (1.25 μM=>final conc. in the 5 μl assay volume is 0.75 μM) in assay buffer and the resulting mixture was incubated for a reaction time of 25 min at 22° C. The concentration of CDK2/CycE was adjusted depending of the activity of the enzyme lot and was chosen appropriate to have the assay in the linear range, typical concentrations were in the range of 130 ng/mL The reaction was stopped by the addition of 5 μl of a solution of TR-FRET detection reagents (0.2 μM streptavidine-XL665 [Cisbio Bioassays, Codolet, France] and 1 nM anti-RB(pSer807/pSer811)-antibody from BD Pharmingen [#558389] and 1.2 nM LANCE EU-W1024 labeled anti-mouse IgG antibody [Perkin-Elmer, product no. AD0077]) in an aqueous EDTA-solution (100 mM EDTA, 0.2% (w/v) bovine serum albumin in 100 mM HEPES/NaOH pH 7.0).
The resulting mixture was incubated 1 h at 22° C. to allow the formation of complex between the phosphorylated biotinylated peptide and the detection reagents. Subsequently the amount of phosphorylated substrate was evaluated by measurement of the resonance energy transfer from the Eu-chelate to the streptavidine-XL. Therefore, the fluorescence emissions at 620 nm and 665 nm after excitation at 350 nm was measured in a TR-FRET reader, e.g. a Rubystar (BMG Labtechnologies, Offenburg, Germany) or a Viewlux (Perkin-Elmer). The ratio of the emissions at 665 nm and at 622 nm was taken as the measure for the amount of phosphorylated substrate.

[1] = test system: HeLa, human cervical tumour cells; test: Proliferation assay, HeLa (crystal violet); format: cell-based; conditions: 4 days, read-out: Inhibition of HeLa cell proliferation IC50
Experimental: Cultivated tumour cells (HeLa, human cervical tumour cells, ATCC CCL-2; NCI-H460, human non-small cell lung carcinoma cells, ATCC HTB-177; A2780, human ovarian carcinoma cells, ECACC #93112519; DU 145, hormone-independent human prostate carcinoma cells, ATCC HTB-81; HeLa-MaTu-ADR, multidrug-resistant human cervical carcinoma cells, EPO-GmbH Berlin; Caco-2, human colorectal carcinoma cells, ATCC HTB-37; B16F10, mouse melanoma cells, ATCC CRL-6475) were plated at a density of 5,000 cells/well (DU145, HeLa-MaTu-ADR), 3,000 cells/well (NCI-H460, HeLa), 2,500 cells/well (A2780), 1,500 cells/well (Caco-2), or 1,000 cells/well (B16F10) in a 96-well multititer plate in 200 μL of their respective growth medium supplemented 10% fetal calf serum. After 24 hours, the cells of one plate (zero-point plate) were stained with crystal violet (see below), while the medium of the other plates was replaced by fresh culture medium (200 μl), to which the test substances were added in various concentrations (0 μM, as well as in the range of 0.001-10 μM; the final concentration of the solvent dimethyl sulfoxide was 0.5%). The cells were incubated for 4 days in the presence of test substances. Cell proliferation was determined by staining the cells with crystal violet: the cells were fixed by adding 20 μl/measuring point of an 11% glutaric aldehyde solution for 15 minutes at room temperature. After three washing cycles of the fixed cells with water, the plates were dried at room temperature. The cells were stained by adding 100 μl/measuring point of a 0.1% crystal violet solution (pH 3.0). After three washing cycles of the stained cells with water, the plates were dried at room temperature. The dye was dissolved by adding 100 μl/measuring point of a 10% acetic acid solution. The extinction was determined by photometry at a wavelength of 595 nm. The change of cell number, in percent, was calculated by normalization of the measured values to the extinction values of the zero-point plate (=0%) and the extinction of the untreated (0 μm) cells (=100%). The IC50 values (inhibitory concentration at 50% of maximal effect) were determined by means of a 4 parameter fit. Non-adherent MOLM-13 human acute myeloid leukemia cells (DSMZ ACC 554) were seeded at a density of 5,000 cells/well in a 96-well multititer plate in 100 μL of growth medium supplemented 10% fetal calf serum. After 24 hours, cell viability of one plate (zero-point plate) was determined with the Cell Titre-Glo Luminescent Cell Viability Assay (Promega), while 50 μL of test compound containing medium was added to the wells of the other plates (final concentrations in the range of 0.001-10 μM and DMSO controls; the final concentration of the solvent dimethyl sulfoxide was 0.5%). Cell viability was assessed after 72-hour exposure with the Cell Titre-Glo Luminescent Cell Viability Assay (Promega).

COc1cc(F)ccc1-c1cc(Nc2cc(CS(C)(=N)=O)ccn2)ncc1F.Cl (single isomer, unassigned; enantiomer 2) [Example 14, 5-Fluoro-4-(4-fluoro-2-methoxyphenyl)-N-{4-[(S-methylsulfonimidoyl)methyl]pyridin-2-yl}pyridin-2-amine hydrochloride; enantiomer 2]
IC50 (CDK2/CycE): 200 nM
IC50 [1]: 42 nM
